Data published in the supplement of paper PMC10307832.

Tests used:
Assay in all cases: relative viability (nuclei count vs DMSO), 5 days (fraction); higher = more cells survive
HCC-827 = system: HCC-827
Summary of the method: (§1)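 A single step with final 0.05% Triton X-100, 1% formaldehyde and 1 ug/ml Hoechst fixed the cells and stained nuclei 5 days after treatment. Lung cancer cell lines in 1536-well plates had been treated by pin tool the day after seeding with one drug alone or a fixed anchor-drug dose plus five library-drug doses (not always all listed) in √10 steps, and nuclei were counted on 4× images. Relative viability is the ratio of nuclei in treated wells to nuclei in vehicle wells, taken as the median of duplicate plates.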

EKVX = system: EKVX
Summary of the method: as §1

NCI-H358 = system: NCI-H358
Summary of the method: as §1

NCI-H1651 = system: NCI-H1651
Summary of the method: as §1

NCI-H1975 = system: NCI-H1975
Summary of the method: as §1

COR-L23 = system: COR-L23
Summary of the method: as §1

NCI-H661 = system: NCI-H661
Summary of the method: as §1

HCC-15 = system: HCC-15
Summary of the method: as §1

NCI-H2087 = system: NCI-H2087
Summary of the method: as §1

NCI-H727 = system: NCI-H727
Summary of the method: as §1

LCLC-103H = system: LCLC-103H
Summary of the method: as §1

COR-L 105 = system: COR-L 105
Summary of the method: as §1

HCC-44 = system: HCC-44
Summary of the method: as §1

NCI-H520 = system: NCI-H520
Summary of the method: as §1

UMC-11 = system: UMC-11
Summary of the method: as §1

EPLC-272H = system: EPLC-272H
Summary of the method: as §1

NCI-H1792 = system: NCI-H1792
Summary of the method: as §1

NCI-H1437 = system: NCI-H1437
Summary of the method: as §1

201T = system: 201T
Summary of the method: as §1

NCI-H647 = system: NCI-H647
Summary of the method: as §1

H3255 = system: H3255
Summary of the method: as §1

ABC-1 = system: ABC-1
Summary of the method: as §1

Cc1cnc(-c2cnc(NCCNc3ccc(C#N)cn3)nc2-c2ccc(Cl)cc2Cl)[nH]1 + C[C@]1(O)C[C@@H](c2nc(-c3ccc4ccc(-c5ccccc5)nc4c3)c3c(N)nccn32)C1 [Linsitinib] (partner 1 µM)
relative viability (HCC-827; first compound 0.08 µM): 0.963 | relative viability (HCC-827; first compound 0.8 µM): 1.01 | relative viability (HCC-827; first compound 2.53 µM): 0.955 | relative viability (EKVX; first compound 0.08 µM): 1.07 | relative viability (EKVX; first compound 0.253 µM): 0.794 | relative viability (EKVX; first compound 0.8 µM): 0.934 | relative viability (EKVX; first compound 2.53 µM): 0.926 | relative viability (NCI-H358; first compound 0.08 µM): 0.833 | relative viability (NCI-H358; first compound 0.253 µM): 0.561 | relative viability (NCI-H358; first compound 0.8 µM): 0.696 | relative viability (NCI-H358; first compound 2.53 µM): 0.618 | relative viability (NCI-H1651; first compound 0.08 µM): 1.22 | relative viability (NCI-H1651; first compound 0.253 µM): 0.893 | relative viability (NCI-H1651; first compound 0.8 µM): 1.04 | relative viability (NCI-H1651; first compound 2.53 µM): 1.06 | relative viability (NCI-H1975; first compound 0.08 µM): 1 | relative viability (NCI-H1975; first compound 0.253 µM): 0.847 | relative viability (NCI-H1975; first compound 0.8 µM): 0.836 | relative viability (NCI-H1975; first compound 2.53 µM): 0.603 | relative viability (COR-L23; first compound 0.08 µM): 0.814 | relative viability (COR-L23; first compound 0.253 µM): 0.833 | relative viability (COR-L23; first compound 0.8 µM): 0.929 | relative viability (COR-L23; first compound 2.53 µM): 0.962 | relative viability (NCI-H661; first compound 0.08 µM): 0.775 | relative viability (NCI-H661; first compound 0.253 µM): 0.628 | relative viability (NCI-H661; first compound 0.8 µM): 0.448 | relative viability (NCI-H661; first compound 2.53 µM): 0.63 | relative viability (HCC-15; first compound 0.08 µM): 0.897 | relative viability (HCC-15; first compound 0.253 µM): 0.811 | relative viability (HCC-15; first compound 0.8 µM): 0.8 | relative viability (HCC-15; first compound 2.53 µM): 0.835 | relative viability (NCI-H2087; first compound 0.08 µM): 0.907 | relative viability (NCI-H2087; first compound 0.253 µM): 0.978 | relative viability (NCI-H2087; first compound 0.8 µM): 0.987 | relative viability (NCI-H2087; first compound 2.53 µM): 1.02 | relative viability (NCI-H727; first compound 0.08 µM): 0.29 | relative viability (NCI-H727; first compound 0.253 µM): 0.334 | relative viability (NCI-H727; first compound 0.8 µM): 0.295 | relative viability (LCLC-103H; first compound 0.08 µM): 0.968 | relative viability (LCLC-103H; first compound 0.253 µM): 1.11 | relative viability (LCLC-103H; first compound 0.8 µM): 1.21 | relative viability (LCLC-103H; first compound 2.53 µM): 1.09 | relative viability (COR-L 105; first compound 0.08 µM): 1 | relative viability (COR-L 105; first compound 0.253 µM): 0.897 | relative viability (COR-L 105; first compound 0.8 µM): 0.832 | relative viability (COR-L 105; first compound 2.53 µM): 0.697 | relative viability (HCC-44; first compound 0.08 µM): 0.685 | relative viability (HCC-44; first compound 0.253 µM): 0.553 | relative viability (HCC-44; first compound 0.8 µM): 0.681 | relative viability (HCC-44; first compound 2.53 µM): 0.787 | relative viability (NCI-H520; first compound 0.08 µM): 0.974 | relative viability (NCI-H520; first compound 0.253 µM): 0.985 | relative viability (NCI-H520; first compound 0.8 µM): 0.965 | relative viability (NCI-H520; first compound 2.53 µM): 1.09 | relative viability (UMC-11; first compound 0.08 µM): 1.04 | relative viability (UMC-11; first compound 0.253 µM): 1 | relative viability (UMC-11; first compound 0.8 µM): 1 | relative viability (UMC-11; first compound 2.53 µM): 0.985 | relative viability (EPLC-272H; first compound 0.08 µM): 1.08 | relative viability (EPLC-272H; first compound 0.253 µM): 1.18 | relative viability (EPLC-272H; first compound 0.8 µM): 1.27 | relative viability (EPLC-272H; first compound 2.53 µM): 1.13 | relative viability (NCI-H1792; first compound 0.08 µM): 0.683 | relative viability (NCI-H1792; first compound 0.253 µM): 0.435 | relative viability (NCI-H1792; first compound 0.8 µM): 0.464 | relative viability (NCI-H1792; first compound 2.53 µM): 0.524 | relative viability (NCI-H1437; first compound 0.08 µM): 1.01 | relative viability (NCI-H1437; first compound 0.253 µM): 0.972 | relative viability (NCI-H1437; first compound 0.8 µM): 1.03 | relative viability (NCI-H1437; first compound 2.53 µM): 1.04 | relative viability (201T; first compound 0.08 µM): 1.03 | relative viability (201T; first compound 0.253 µM): 1.01 | relative viability (201T; first compound 0.8 µM): 1.02 | relative viability (201T; first compound 2.53 µM): 1.01 | relative viability (NCI-H647; first compound 0.08 µM): 1.17 | relative viability (NCI-H647; first compound 0.253 µM): 0.993 | relative viability (NCI-H647; first compound 0.8 µM): 1.17 | relative viability (NCI-H647; first compound 2.53 µM): 1.03 | relative viability (H3255; first compound 0.08 µM): 1.15 | relative viability (H3255; first compound 0.253 µM): 0.884 | relative viability (H3255; first compound 0.8 µM): 0.928 | relative viability (H3255; first compound 2.53 µM): 0.944 | relative viability (ABC-1; first compound 0.08 µM): 1.04 | relative viability (ABC-1; first compound 0.253 µM): 0.682 | relative viability (ABC-1; first compound 0.8 µM): 0.839 | relative viability (ABC-1; first compound 2.53 µM): 0.593
